Reference: ChEMBL document CHEMBL4627384, “l-Thyroxin and the Nonclassical Thyroid Hormone TETRAC Are Potent Activators of PPARγ” (J Med Chem, 2020)
Activity calls are given as the source filed them. The calls are words filed in the database; no cut-off is given here.

Tests used:
[1] = target: T1, Peroxisome proliferator-activated receptor gamma (Homo sapiens) (UniProt P37231); test: Agonist activity at PPARgamma in human HepG2 cells without THRB knockdown assessed as induction of CD36 expression at 30 uM incubated for 8 hrs in by Western blot analysis; format: cell-based
T1 sequence (whole entry): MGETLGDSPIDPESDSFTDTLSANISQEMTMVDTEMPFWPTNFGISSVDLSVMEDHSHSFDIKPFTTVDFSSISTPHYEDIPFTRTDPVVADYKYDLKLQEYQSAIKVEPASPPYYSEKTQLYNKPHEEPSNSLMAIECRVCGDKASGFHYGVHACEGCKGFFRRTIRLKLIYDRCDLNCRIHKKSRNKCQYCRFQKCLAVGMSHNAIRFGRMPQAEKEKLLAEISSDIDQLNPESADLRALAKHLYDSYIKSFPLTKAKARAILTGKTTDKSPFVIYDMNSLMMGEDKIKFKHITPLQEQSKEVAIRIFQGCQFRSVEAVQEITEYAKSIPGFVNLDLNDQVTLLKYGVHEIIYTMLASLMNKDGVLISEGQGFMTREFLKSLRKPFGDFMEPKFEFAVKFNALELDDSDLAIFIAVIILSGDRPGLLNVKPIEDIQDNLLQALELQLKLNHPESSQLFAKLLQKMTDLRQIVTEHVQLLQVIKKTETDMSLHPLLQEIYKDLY

[2] = target: T1, Peroxisome proliferator-activated receptor gamma (Homo sapiens); test: Agonist activity at PPARgamma in human HepG2 cells with THRB knockdown assessed as induction of CD36 expression at 30 uM incubated for 8 hrs in by Western blot analysis; format: cell-based
[3] = Drug metabolism in human HepG2 cells assessed as (S)-2-amino-3-(4-(4-hydroxy-3-iodophenoxy)-3,5-diiodophenyl)propanoic acid formation at 10 uM incubated for 24 hrs by LC-MS analysis; format: ADME, cell-based; conditions: hepg2, 24 h
[4] = target: T1, Peroxisome proliferator-activated receptor gamma (Homo sapiens); test: Agonist activity at PPARgamma in human HepG2 cells without THRA knockdown assessed as induction of CD36 expression at 1 uM incubated for 8 hrs in by Western blot analysis; format: cell-based
[5] = target: T1, Peroxisome proliferator-activated receptor gamma (Homo sapiens); test: Agonist activity at N-terminal GFP-fused PPARgamma LBD (unknown origin) assessed as biotin-labeled SRC-1 recruitment incubated for 2 hrs by HT-FRET assay relative to rosiglitazone
[6] = target: T2, Retinoic acid receptor RXR-alpha (Homo sapiens, UniProt P19793); test: Agonist activity at GFP RXRalpha LBD (unknown origin) assessed as biotin-labeled SRC-1 recruitment incubated for 2 hrs by HT-FRET assay
T2 sequence (P19793 whole entry): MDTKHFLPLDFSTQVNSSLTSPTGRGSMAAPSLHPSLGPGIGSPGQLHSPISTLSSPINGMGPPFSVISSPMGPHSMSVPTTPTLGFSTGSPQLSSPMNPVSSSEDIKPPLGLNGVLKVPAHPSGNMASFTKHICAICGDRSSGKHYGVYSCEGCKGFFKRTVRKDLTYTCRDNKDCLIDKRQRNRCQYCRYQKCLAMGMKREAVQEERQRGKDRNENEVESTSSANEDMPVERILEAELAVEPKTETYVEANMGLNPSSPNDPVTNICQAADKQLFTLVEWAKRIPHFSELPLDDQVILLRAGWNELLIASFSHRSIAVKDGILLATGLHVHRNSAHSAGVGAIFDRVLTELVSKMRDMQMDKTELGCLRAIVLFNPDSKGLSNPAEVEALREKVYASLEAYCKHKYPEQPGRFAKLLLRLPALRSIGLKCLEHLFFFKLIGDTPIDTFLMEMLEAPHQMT

[7] = target: T3, Peroxisome proliferator-activated receptor gamma (Mus musculus) (UniProt P37238); test: Agonist activity at PPARgamma in mouse 3T3L1 adipocytes assessed as induction of CD36 mRNA expression at 1 uM by qRT-PCR analysis; format: cell-based; conditions: 3T3-L1
T3 sequence (whole entry): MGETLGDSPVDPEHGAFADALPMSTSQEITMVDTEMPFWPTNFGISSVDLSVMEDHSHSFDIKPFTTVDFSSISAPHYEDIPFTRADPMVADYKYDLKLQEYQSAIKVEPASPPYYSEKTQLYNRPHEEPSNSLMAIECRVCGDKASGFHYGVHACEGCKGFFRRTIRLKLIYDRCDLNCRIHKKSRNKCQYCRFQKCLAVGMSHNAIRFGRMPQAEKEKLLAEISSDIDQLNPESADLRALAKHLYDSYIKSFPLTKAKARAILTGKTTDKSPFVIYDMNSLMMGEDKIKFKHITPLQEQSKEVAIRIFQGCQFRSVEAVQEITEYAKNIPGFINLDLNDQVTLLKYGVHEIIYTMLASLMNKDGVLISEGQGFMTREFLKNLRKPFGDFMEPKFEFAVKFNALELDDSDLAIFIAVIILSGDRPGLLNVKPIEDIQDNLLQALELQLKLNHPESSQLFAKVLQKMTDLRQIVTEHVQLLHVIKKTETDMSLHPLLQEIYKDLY

[8] = target: T3, Peroxisome proliferator-activated receptor gamma (Mus musculus); test: Agonist activity at PPARgamma in mouse 3T3L1 adipocytes assessed as induction of FABP4 mRNA expression at 1 uM by qRT-PCR analysis; format: cell-based; conditions: 3T3-L1
[9] = target: T3, Peroxisome proliferator-activated receptor gamma (Mus musculus); test: Agonist activity at PPARgamma in mouse 3T3L1 adipocytes assessed as induction of GLUT4 mRNA expression at 1 uM by qRT-PCR analysis; format: cell-based; conditions: 3T3-L1
[10] = target: T1, Peroxisome proliferator-activated receptor gamma (Homo sapiens); test: Agonist activity at PPARgamma in human HepG2 cells without THRB knockdown assessed as induction of CD36 expression at 1 uM incubated for 8 hrs in by Western blot analysis; format: cell-based
[11] = target: T1, Peroxisome proliferator-activated receptor gamma (Homo sapiens); test: Agonist activity at PPARgamma in human HepG2 cells with THRB knockdown assessed as induction of CD36 expression at 1 uM incubated for 8 hrs in by Western blot analysis; format: cell-based
[12] = target: Luciferin 4-monooxygenase (Photinus pyralis) (UniProt P08659); test: Activation of firefly luciferase expressed in HEK293T cells at 0.1 uM incubated for 14 to 16 hrs by reporter gene assay; format: cell-based; conditions: HEK-293T
Luciferin 4-monooxygenase (Photinus pyralis), sequence (P08659 whole entry): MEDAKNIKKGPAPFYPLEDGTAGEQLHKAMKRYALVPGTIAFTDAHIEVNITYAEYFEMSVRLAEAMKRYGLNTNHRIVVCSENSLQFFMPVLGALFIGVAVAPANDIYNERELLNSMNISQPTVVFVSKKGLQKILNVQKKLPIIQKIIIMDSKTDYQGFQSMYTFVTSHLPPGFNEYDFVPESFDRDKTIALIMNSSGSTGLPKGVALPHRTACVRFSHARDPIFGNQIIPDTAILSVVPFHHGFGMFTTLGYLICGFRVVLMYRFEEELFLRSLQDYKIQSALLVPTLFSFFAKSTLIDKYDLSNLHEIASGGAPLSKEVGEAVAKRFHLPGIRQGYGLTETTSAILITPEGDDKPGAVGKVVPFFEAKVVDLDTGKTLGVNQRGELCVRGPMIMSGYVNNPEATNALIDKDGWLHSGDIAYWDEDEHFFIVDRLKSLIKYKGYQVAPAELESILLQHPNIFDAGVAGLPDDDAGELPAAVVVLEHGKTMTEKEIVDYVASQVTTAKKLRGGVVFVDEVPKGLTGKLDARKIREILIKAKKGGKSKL

[13] = Drug level in human serum by RIA; format: ADME, cell-free; conditions: read-out: Drug uptake

SMILES	Activity [1]	Activity [2]	Drug metabolism [3] [ng]	Activity [4]	Activity [5]	EC50 [6] [µM]	Activity [7]	Activity [8]	Activity [9]	Activity [10]	Activity [11]	Activity [12]	concentration [13] [nM]
N[C@@H](Cc1cc(I)c(Oc2cc(I)c(O)c(I)c2)c(I)c1)C(=O)O [LEVOTHYROXINE]	Active	Active	174	–	–	–	–	–	–	–	–	–	–
O=C(O)Cc1cc(I)c(Oc2cc(I)c(O)c(I)c2)c(I)c1 [TETRAC]	–	–	–	Active	Active	4.6	Active	Active	Active	Active	Active	inactive	1.6
